# In patent publication US5021551A, “Method of enhancing peptide immunogenicity” (Washington University, priority 1989, dated 1991):
# Entries after “also recorded” stand apart in the source; their conditions may differ. Peptide text beside a SMILES is read from it.
# How the values were obtained:
# Assay type in all cases: cell-based
# [1] = test system: A6.A2 T cell hybridoma (HEL (34-45) specific); assay: T cell stimulation assay, A6.A2 hybridoma, fixed TA3 antigen-presenting cells; details: FIG. 2
# Procedure: (§1) FIG. 2a and 2b are graphical representation which show the stimulation of two T cell hybridomas, A6.A2 ([…]) and 18N.30 ([…]), that react with a modified T cell immunogenic peptide 34-45NH.sbsb.2 ( ) in another embodiment of the invention compared to normal peptide HEL (34-45) ( ). The assay was performed as described hereinafter in Materials and Methods of the Examples except fixed TA3 cells were used as the source of antigen-presenting cell.
# (§2) The level of T cell stimulation was determined as previously described in detail by Allen and Unanue, J. Immunol. 132, 1077 (1984). In general, the level of T cell stimulation was determined by quantitating the amount of IL-2 produced by the T cell hybridomas. IL-2 was bioassayed by determining the level of ^3 H-Thymidine incorporation of the IL-2 dependent cell line, CTLL, 24 hours after culture in the test culture media. The source of antigen presenting cells were either peptone elicited peritoneal macrophages from CBA/J mice previously infected with Listeria monocytogenes or the B cell hybridoma, TA3 [Allen and Unanue, Id.; Allen et al, Proc. Natl. Acad. Sci. USA 81, 2489 (1984)]. […]
# (§3) It was also determined whether the changes that enhanced the immunogenicity of HEL (52-61) could be extrapolated to another peptide of HEL which had been previously studied, namely the peptide comprising residues 34-45 [Allen et al, Immun. […]
# [2] = test system: 18N.30 T cell hybridoma (HEL (34-45) specific); assay: T cell stimulation assay, 18N.30 hybridoma, fixed TA3 antigen-presenting cells; details: FIG. 2
# Procedure: as §1, §2, §3
# [3] = test system: 3A9 T cell hybridoma (HEL(52-61) specific); assay: T cell stimulation assay (IL-2 release, CTLL bioassay), 3A9 hybridoma
# Procedure: (§4) The level of T cell stimulation was determined as previously described in detail by Allen and Unanue, J. Immunol. 132, 1077 (1984). In general, the level of T cell stimulation was determined by quantitating the amount of IL-2 produced by the T cell hybridomas. IL-2 was bioassayed by determining the level of ^3 H-Thymidine incorporation of the IL-2 dependent cell line, CTLL, 24 hours after culture in the test culture media. The source of antigen presenting cells were either peptone elicited peritoneal macrophages from CBA/J mice previously infected with Listeria monocytogenes or the B cell hybridoma, TA3 [Allen and Unanue, Id.; Allen et al, Proc. Natl. Acad. Sci. USA 81, 2489 (1984)]. Both sources of antigen presenting cells were fixed with paraformaldehyde prior to exposure to antigen.
# (§5) The relative stimulatory capacity of derivatives of HEL (52-61) are shown. The relative stimulatory capacity of a peptide was determined by the relative shift in the concentration of antigen required for a 50% maximal response. For example, 300 fold less ^- 52-61^+. was required for a 50% maximal response than 52-61 with 3A9 T cells. The stimulation of 3A9 and 2All, two HEL (46-61) specific T cells, was determined as described in Materials and Methods. This test was performed three times, with identical results. A representative test is shown.
# [4] = test system: 2A11 T cell hybridoma (HEL(52-61) specific); assay: T cell stimulation assay (IL-2 release, CTLL bioassay), 2A11 hybridoma; details: relative shift in antigen concentration required for 50% maximal response; 52-61 = 1
# Procedure: as §4, §5
smiles,measurement,setting,value
C[C@H](NC(=O)[C@H](CCC(N)=O)NC(=O)[C@@H](NC(=O)[C@H](CC(N)=O)NC(=O)[C@H](Cc1ccccc1)NC(=O)[C@H](CC(N)=O)NC(=O)[C@H](CO)NC(=O)[C@H](CCC(=O)O)NC(=O)[C@@H](N)Cc1ccccc1)[C@@H](C)O)C(=O)N[C@H](C(=O)N[C@@H](CC(N)=O)C(=O)N[C@@H](CCCNC(=N)N)C(N)=O)[C@@H](C)O [HEL (34-45) with a C terminal amide] (H-FESNFNTQATNR-NH2),increase in response of A6.A2 compared to unmodified HEL (34-45),[1],50 fold
same,increase in response of 18N.30 compared to unmodified HEL (34-45),[2],250 fold
CC[C@H](C)[C@H](NC(=O)CNC(=O)[C@H](Cc1ccc(O)cc1)NC(=O)[C@H](CC(=O)O)NC(=O)[C@@H](N)CCCCN)C(=O)N[C@@H](CC(C)C)C(=O)N[C@@H](CCC(N)=O)C(=O)N[C@H](C(=O)N[C@@H](CC(N)=O)C(=O)N[C@@H](CO)C(=O)N[C@@H](CCCNC(=N)N)C(=O)N[C@@H](CCC(=O)O)C(=O)O)[C@@H](C)CC [^+- 52-61^-+] (H-KDYGILQINSRE-OH),"stimulatory ability, 3A9 T cell (in words)",[3]; qualitative comparison,drastically reduced; also recorded: less active than HEL (52-61)
same,"Relative Stimulatory Capacity, T Cell 3A9","[3]; relative shift in antigen concentration required for 50% maximal response, 52-61 = 1",0.3
same,"Relative Stimulatory Capacity, T Cell 2A11",[4],10
